Experimental data taken from patent publication US7138504B2, “Reagents and methods for mycophenolic acid immunoassay” (Microgenics Corporation, priority 2004, dated 2006).

What was measured:
[1] = system: inosine-monophosphate dehydrogenase (IMPDH); conditions: cited from earlier work
[2] = system: antibody raised against MPAlc; experiment: CEDIA MPA assay specificity (cross-reactivity) in MPA-free plasma; type: binding, goats
Experimental: “Cross reactivity” is determined in a quantitative immunoassay by establishing a standard curve using known dilutions of MPA. The standard curve is then used to calculate the apparent concentration of the interfering substance present in various known amounts in samples assayed under substantially similar conditions. The percent (%) cross-reactivity is the measured concentration divided by the tested concentration multiplied by 100%. […] If MPA is present in the sample, it binds to the antibody, leaving the ED portion of the ED-containing conjugate free to restore enzyme activity upon association with enzyme acceptor (EA) fragments in the assay reaction mixture. The active enzyme is then capable of producing a quantifiable reaction product when exposed to appropriate substrate. If MPA is not present in the sample, the antibody binds to the ED-containing conjugate inhibiting association of the ED fragments with the EA fragments, thus inhibiting restoration of enzyme activity. The amount of reaction product and resultant absorbance change are proportional to the amount of MPA in the specimen. […] (active metabolite), were added to MPA-free plasma for measuring cross-reactivity. The estimated cross-reactivity of each compound was calculated using the formula: (measured concentration-control concentration)×100% concentration tested Additionally, commonly co-prescribed and over-the-counter (OTC) drugs were tested in MPA-free plasma for cross-reactivity in the […] assay.

COc1c(C)c2c(c(O)c1C/C=C(\C)CCC(=O)O[C@@H]1O[C@H](C(=O)O)[C@@H](O)[C@H](O)[C@H]1O)C(=O)OC2 [Acyl glucuronide MPA]
inhibition of IMPDH [1]: activity similar to that of MPA | % Cross-Reactivity ([2]; concentration 10 μg/ml): 192%

COc1c(C)c2c(c(O[C@@H]3O[C@H](C(=O)O)[C@@H](O)[C@H](O)[C@H]3O)c1C/C=C(\C)CCC(=O)O)C(=O)OC2 [7-O-Glucuronide MPA]
% Cross-Reactivity ([2]; concentration 1000 μg/ml): 0.0%

COc1c(C)c2c(c(O)c1C/C=C(\C)CCC(=O)OCCN1CCOCC1)C(=O)OC2 [Mycophenolate mofetil, 2-morpholinoethyl(E)-6-(1,3-dihydro-4-hydroxy-6-methoxy-7-methyl-3-oxo-5-isobenzofuranyl)-4-methyl-4-hexenoate]
% Cross-Reactivity ([2]; concentration 926 μg/ml): 123%

COc1c(C)c2c(c(O)c1C/C=C(\C)CCC(=O)O)C(=O)OC2 [MPA, Mycophenolic acid]
inhibition of IMPDH [1]: potent and specific inhibitor
